These results are taken from patent US20110190270A1, “METHODS OF TREATING THROMBOEMBOLIC DISORDERS” (MONASH UNIVERSITY, priority 2008, published 2011).

pIC50: −log10 of the molar value.

The test system of assay [1] is platelet thrombi formed from human whole blood. Kind of assay: in vitro thrombus consolidation under flow on Type I collagen. The class given is cell-based. To be noted: for effect of fibrin/thrombin inhibition on contraction of platelet thrombi (in words): whole blood, 1800 s-1, GPRP 280 μM in native blood, hirudin-anticoagulated, lepirudin 1600 U/ml + enoxaparine 400 U/ml. The protocol:
Flow-based thrombus formation assays on a bovine fibrillar Type I collagen matrix were performed at 37° C. in the absence of fibrin. Briefly, […] (DMSO), Blebbistatin (+) (200 μM), Blebbistatin (−) (200 μM), EGTA/Mg^2+ (2 mM/1 mM), HA1077 (80 μM), H1152 (40 μM) or 2-APB (200 μM) (10 mins, 37° C.) prior to perfusion through fibrillar type I collagen-coated microcapillary tubes (2.0 mg/ml) at 1800 s^−1 for 5 mins. Thrombus formation was observed using an inverted Leica DMIRB microscope (Leica Microsystems, Wetzlar, Germany) with a 63× water objective (1.2 numeric aperture (NA)), and recorded in real-time using a Dage-MTI charge-coupled device (CCD) camera 300 ETRCX (Dage-MTI, Michigan City, Ind.).
Two-dimensional quantification of thrombus consolidation—Quantification of thrombus contraction was performed by ‘spiking’ whole blood with 3% DiIC12-labelled platelets prior to perfusion. Spiked whole blood was then perfused over collagen matrices as described above, and DIC/fluorescence images were recorded in real-time as described above, for off-line analysis. Studies examining the effect of 2-APB on consolidation were performed by perfusing untreated whole blood across microslides for 30 seconds to establish a nucleating thrombus, followed by perfusion of inhibitor treated blood. […] The distance between 2 fluorescently-labelled platelets in a given thrombus was measured in […] every 30 sec over 5 min. Results are expressed as percentage decrease in the distance between 2 platelets incorporated into a thrombus prior to 1 minute of flow, with the distance between platelets at 1 minute taken as 100%.
3D volumetric thrombus analysis—For analysis of thrombus volume, whole blood was labelled with DiIC12 (1 μM) prior to perfusion. Thrombi were formed as described above, and images captured in real-time using an inverted Leica DMIRB confocal microscope, with […] sections acquired every 30 seconds over 4-5 min. Analysis of thrombus volume was performed using Metamorph 6 software.

The subject of assay [2] is thrombi in mesenteric post-capillary venules. Briefly: intravital microscopy of thrombus growth and stability after vessel injury. To be noted: for mean reduction in thrombus size: local administration into the microcirculation after thrombus formation; for mean reduction in thrombus size / effect on thrombus stability and embolization in vivo (in words): needle puncture, no lepirudin; for stability of the primary hemostatic plug (in words): mice pretreated with lepirudin 50 mg/kg i.v., local infusion into formed thrombus; for effect on thrombus stability and embolization in vivo (in words): local microinjection after thrombus formation. The class given is in vivo, mice. As for the experimental part: The development and consolidation of thrombi in response to vessel injury was monitored using intravital microscopy. C57BL6 or PAR4 deficient (15 g-18 g) mice were anaesthetised using sodium pentobarbitone (60 mg/kg), and the mesentery exteriorized through a midline abdominal incision. Body temperature was maintained during the procedure using an infrared heat lamp, and exposed mesenteric vessels (50-160 μm diameter) were hydrated using warm saline. Vessel injury was achieved either through vessel puncture using a microinjection needle (20-30 μm tip diameter) connected to a micromanipulator (Eppendorf), or through application of 6% FeCl3-soaked filter paper (8 sec). Accrual of platelets to the area of injury was recorded in real-time as described for in vitro flow assays (above). […] (25 mM stock solution, 2.5 μl total injection volume), or an equivalent volume of vehicle (DMSO), were locally infused into developing thrombi via the microinjection needle (release rate 2-3 μl/min, 3 cycles). To prevent fibrin generation, in some experiments, lepirudin (50 mg/kg) was administered via intravenous injection prior to induction of injury and subsequent injection of inhibitors. Complete abolition of fibrin formation at this concentration of lepirudin was confirmed by histology using Carstair's stain. The surface area of thrombi in vivo was measured using Image J, with analysis of every 5th frame (at 1 frame/sec) over 4-5 mins. Change in surface area was expressed as fold-increase or decrease over the original surface area (=1).

A further assay has as its system non-muscle myosin II. To be noted: read-out: IC50, inhibitor of non-muscle myosin II; cited from earlier work.
The subject of assay [3] is platelet-mediated fibrin clot retraction in citrated PRP. Briefly: platelet-mediated fibrin clot retraction. Type of assay: cell-based, human. To be noted: thrombin 1 U/ml, 2-APB 200 μM, EGTA/Mg2+ 2 mM/1 mM, H1152 40 μM, HA1077 80 μM. As for the experimental part: Washed platelets were prepared from acid-citrate dextrose (ACD)-anticoagulated whole blood, with the inclusion of Lepirudin (800 U/ml) in the Platelet Washing Buffer and Apyrase (0.02 U/ml) in the Tyrode's Buffer.
Platelet-mediated fibrin-dependent clot retraction was measured using citrated PRP^9,10. Results are expressed as, the percentage of serum remaining in the tube following clot removal, after subtracting the volumes obtained for c7E3 (negative control) samples.

Assay [4] deals with occlusive blood clot in the carotid artery. Kind of assay: carotid artery occlusion model, clot lysis and vascular reperfusion. Type of assay: in vivo, mice. To be noted: regimens A-H of FIGS. 8 and 9, blood flow monitored 60 minutes. As for the experimental part:
Mice were anaesthetised and minor surgery performed to expose to the carotid artery and jugular vein. A Doppler flow probe was placed around the carotid artery to monitor blood flow through this blood vessel, and a catheter placed in the jugular vein to administer drugs. A blood clot was formed in the carotid artery of the mouse through the delivery of a small electric current (4 mA for 1.25 min^g), resulting in complete blockage of blood flow through the vessel (blood flow=0 mls/min), as measured by the flow probe. After vessel blockade was established, various combinations of t-PA, urokinase, heparin, hirudin, HA1077 and Y27632 were administered, using concentrations and regimens indicated (A-H in FIGS. 8 and 9) and examined for their efficacy to dissolve blood clots and restore blood flow. Blood flow was monitored in mice receiving each drug combination for a further 60 minutes, and blood flow measurements recorded using computer software.

[5] abbreviates: H1152 40 μM, Blebbistatin (−) 200 μM, lepirudin-anticoagulated human whole blood, 1800 s-1.
[6] abbreviates: GPRP added to native whole blood, 1800 s-1.

As to `Cc1ccc2c(c1)C(=O)C1(O)CCN(c3ccccc3)C1=N2` (stereo not drawn) [Blebbistatin], the “stability of thrombi formed in vitro (in words)” value in assay [1] (setting [5]) was “highly unstable platelet thrombi”. Also, the “effect on thrombus contraction / consolidation (in words)” value in assay [1] (HA1077 80 μM, Blebbistatin (−) 200 μM, lepirudin-anticoagulated human whole blood, 1800 s-1) was “tight packing of platelets did not occur”. Further, in assay [2] (after stopping local administration), the “thrombus behaviour on cessation of administration” value is given as “thrombi rapidly reformed”. Further, the “mean reduction in thrombus size” value in assay [2] came to 38%. Besides, the “stability of the primary hemostatic plug (in words)” value in assay [2] (listed as active enantiomer of blebbistatin) was “near complete embolization of the formed thrombus”. Besides, the pIC50 (in general, the negative decadic logarithm of the IC50, by convention in mol/L) in the assay with non-muscle myosin II was around 5.40.
Gly-Pro-Arg-Pro peptide [GPRP]: in assay [1] (setting [6]), the “formation of fibrin polymers” value is reported as “inhibited the formation of individual fibrin polymers” and the platelet thrombus growth result is recorded as “no inhibitory effect”. For the same molecule, the “effect of fibrin/thrombin inhibition on contraction of platelet thrombi (in words)” value in assay [1] is recorded as “unaltered”.
On to `Cl.O=S(=O)(c1cccc2cnccc12)N1CCCNCC1` [HA1077, 1-(5-isoquinolinesulphonyl)-homopiperazine HCl], for which the “fibrin clot retraction (in words)” value in assay [3] is recorded as “neither inhibitor had any significant effect”. In addition, in assay [4], the “clot lysis and re-establishment of blood flow (in words)” value was “unable to lyse blood clots and re-establish blood flow”.
Consider `Cc1cncc2cccc(S(=O)(=O)N3CCCNC[C@@H]3C)c12.Cl.Cl` [H1152, (S)-(+)-2-methyl-1-[(4-methyl-5-isoquinolinyl)sulfonyl]homopiperazin, 2HCl], for which the “stability of thrombi formed in vitro (in words)” value in assay [1] (setting [5]) is given as “less stable thrombi”. For the same molecule, the “decrease in thrombus contraction” value in assay [1] (H1152 40 μM, lepirudin-anticoagulated human whole blood, 1800 s-1, after 5 mins perfusion) is given as 88%. Also, the “fibrin clot retraction (in words)” value in assay [3] is on record as “neither inhibitor had any significant effect”. Moreover, in assay [2], the “mean reduction in thrombus size” value is recorded as 34%; the “effect on thrombus stability and embolization in vivo (in words)” value was “more effective than the IP3 receptor antagonist APB”.
Take `O=C(O)CN(CCOCCOCCN(CC(=O)O)CC(=O)O)CC(=O)O` [EGTA]: the “reduction of the rate of thrombus contraction” value in assay [1] (EGTA/Mg2+ 2 mM/1 mM, lepirudin-anticoagulated human whole blood, 1800 s-1, at 5 mins perfusion) is “up to 52%”. Also, the “fibrin clot retraction (in words)” value in assay [3] is “no significant inhibitory effect”.
`Cc1ccc2c(c1)C(=O)C1(O)CCN(c3ccccc3)C1=N2` (single isomer, unassigned) [inactive blebbistatin enantiomer]: in assay [2], the “effect on thrombus stability and embolization in vivo (in words)” value is listed as “no effect”; the “stability of the primary hemostatic plug (in words)” value is given as “no adverse effect”.
On to `NCCOB(c1ccccc1)c1ccccc1` [2-APB, 2-aminoethoxydiphenyl borate], for which the “reduction of thrombus contraction” value in assay [1] (2-APB 200 μM, perfused after 30 sec of untreated blood, lepirudin-anticoagulated human whole blood, 1800 s-1) amounted to 32%. In addition, in assay [3], the “fibrin clot retraction (in words)” value is reported as “abolished clot retraction”.
For lepirudin, the “effect of fibrin/thrombin inhibition on contraction of platelet thrombi (in words)” value in assay [1] is listed as “underwent a prominent contractile phase”. The “thrombus stability in the absence of thrombin” value in assay [2] (wild type mice pretreated with lepirudin 50 mg/kg prior to vessel injury) was “thrombi were more unstable”.
